Laboratory results: the supplement of paper PMC10307832

Experiments:
Experiment in all cases: relative viability (nuclei count vs DMSO), 5 days (fraction); higher = more cells survive
Neratinib + Crizotinib = compound: CCOc1cc2ncc(C#N)c(Nc3ccc(OCc4ccccn4)c(Cl)c3)c2cc1NC(=O)/C=C/CN(C)C [Neratinib] + C[C@@H](Oc1cc(-c2cnn(C3CCNCC3)c2)cnc1N)c1c(Cl)ccc(F)c1Cl [Crizotinib] (partner 1 µM)
Method in brief: (§1)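 Lung cancer cell lines in 1536-well plates were dosed by pin tool the day after seeding, either with one drug alone or with a fixed anchor-drug dose plus five library-drug doses (not always all listed) in √10 steps. After 5 days, cells were fixed and their nuclei stained in one step (final 0.05% Triton X-100, 1% formaldehyde, 1 ug/ml Hoechst), then counted on 4× images. Relative viability is the nuclei count in treated wells divided by that in vehicle wells. Values are medians of duplicate plates.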

Neratinib + Phenformin = compound: CCOc1cc2ncc(C#N)c(Nc3ccc(OCc4ccccn4)c(Cl)c3)c2cc1NC(=O)/C=C/CN(C)C [Neratinib] + N=C(N)NC(=N)NCCc1ccccc1 [Phenformin] (partner 250 µM)
Method in brief: as §1

Neratinib + Navitoclax = compound: CCOc1cc2ncc(C#N)c(Nc3ccc(OCc4ccccn4)c(Cl)c3)c2cc1NC(=O)/C=C/CN(C)C [Neratinib] + CC1(C)CCC(c2ccc(Cl)cc2)=C(CN2CCN(c3ccc(C(=O)NS(=O)(=O)c4ccc(N[C@H](CCN5CCOCC5)CSc5ccccc5)c(S(=O)(=O)C(F)(F)F)c4)cc3)CC2)C1 [Navitoclax] (partner 0.5 µM)
Method in brief: as §1

Neratinib + Decitabine = compound: CCOc1cc2ncc(C#N)c(Nc3ccc(OCc4ccccn4)c(Cl)c3)c2cc1NC(=O)/C=C/CN(C)C [Neratinib] + Nc1ncn([C@H]2C[C@H](O)[C@@H](CO)O2)c(=O)n1 [Decitabine] (partner 2 µM)
Method in brief: as §1

Cell Line	relative viability (Neratinib + Crizotinib; first compound 0.01 µM)	relative viability (Neratinib + Crizotinib; first compound 0.03162 µM)	relative viability (Neratinib + Crizotinib; first compound 0.1 µM)	relative viability (Neratinib + Crizotinib; first compound 0.3162 µM)	relative viability (Neratinib + Crizotinib; first compound 1 µM)	relative viability (Neratinib + Phenformin; first compound 0.01 µM)	relative viability (Neratinib + Phenformin; first compound 0.03162 µM)	relative viability (Neratinib + Phenformin; first compound 0.1 µM)	relative viability (Neratinib + Phenformin; first compound 0.3162 µM)	relative viability (Neratinib + Phenformin; first compound 1 µM)	relative viability (Neratinib + Navitoclax; first compound 0.01 µM)	relative viability (Neratinib + Navitoclax; first compound 0.03162 µM)	relative viability (Neratinib + Navitoclax; first compound 0.1 µM)	relative viability (Neratinib + Navitoclax; first compound 0.3162 µM)	relative viability (Neratinib + Navitoclax; first compound 1 µM)	relative viability (Neratinib + Decitabine; first compound 0.01 µM)	relative viability (Neratinib + Decitabine; first compound 0.03162 µM)	relative viability (Neratinib + Decitabine; first compound 0.3162 µM)	relative viability (Neratinib + Decitabine; first compound 1 µM)	relative viability (Neratinib + Decitabine; first compound 0.1 µM)
201T	1.08	0.974	0.861	1.06	0.959	0.484	0.424	0.44	0.379	0.42	1.26	1.19	1.18	1.22	1.25	0.858	0.857	0.853	0.84	–
A549	1	0.796	0.713	0.68	0.187	0.162	0.189	–	0.137	0.191	1.42	1.25	–	1.12	0.528	0.325	0.295	0.264	0.318	–
A-427	1.07	0.936	0.819	0.924	0.566	0.427	0.313	0.32	0.281	0.268	1.06	0.984	0.907	0.879	0.46	0.558	0.606	0.521	0.54	0.573
ABC-1	1.47	0.954	1.06	0.668	0.537	0.211	0.236	0.285	0.231	0.215	–	–	–	–	–	1.21	1.31	1.07	0.746	1.23
BEN	0.849	1.1	0.869	0.762	0.509	0.259	0.279	0.22	0.251	0.248	0.0747	0.0585	0.0644	0.0753	0.0586	0.76	0.77	0.636	0.702	0.809
CAL-12T	0.84	0.945	0.408	0.256	0.206	0.55	0.572	0.488	0.254	0.179	1.27	1.59	0.94	0.632	0.232	–	–	–	–	–
COR-L23	0.853	0.678	0.589	0.564	0.503	0.44	0.469	0.429	0.473	0.41	1.16	1.13	1.13	0.968	0.485	0.456	0.478	0.495	0.473	0.499
COR-L 105	0.978	0.828	0.531	0.201	0.22	0.537	0.467	0.304	0.221	0.193	1.01	0.748	0.452	0.226	0.273	0.674	0.618	–	0.349	0.402
Calu-6	0.905	0.939	0.737	0.692	0.422	–	–	–	–	–	0.833	0.899	0.975	0.734	0.523	–	–	–	–	–
ChaGo-K-1	1.3	1.24	1.14	1.02	0.845	0.466	0.518	0.482	0.432	0.401	0.986	1	1.02	0.821	0.905	0.517	0.581	0.526	0.534	0.517
EBC-1	0.167	0.204	0.175	–	0.203	–	–	–	–	–	0.439	0.408	0.41	0.339	0.219	–	–	–	–	–
EKVX	1.32	1.08	0.823	0.452	0.211	0.241	0.244	0.226	0.206	0.132	0.999	1.04	0.831	0.305	0.205	0.339	0.351	0.197	0.16	0.324
EMC-BAC-2	0.828	0.817	0.635	0.709	0.407	0.586	0.554	0.505	0.451	0.377	1.16	1.47	1.01	0.993	0.811	1.12	1	0.988	0.929	0.942
EPLC-272H	0.997	0.964	0.799	0.613	0.553	–	0.309	0.317	0.235	0.157	1.09	0.991	0.851	0.822	0.834	0.407	0.444	0.331	0.344	0.332
H3255	0.836	0.838	0.671	0.243	0.164	0.311	0.28	0.242	0.222	0.246	0.583	0.74	0.243	0.0785	0.0934	0.548	0.471	0.218	0.245	0.454
HARA	1.19	1.09	0.731	0.782	0.489	0.387	0.578	0.385	0.318	0.215	1.17	1.12	0.562	0.922	0.644	0.573	0.493	–	0.476	0.414
HCC-15	0.843	0.906	0.829	0.707	0.648	0.537	0.576	0.456	0.368	0.349	0.697	0.72	0.666	0.625	–	0.684	0.703	0.662	0.597	0.646
HCC-44	0.821	0.8	0.727	0.806	0.851	0.22	0.228	0.213	0.157	0.245	1.1	0.978	0.867	0.951	0.917	0.993	0.983	0.922	1.09	0.897

Cell Line	relative viability (Neratinib + Crizotinib; first compound 0.01 µM)	relative viability (Neratinib + Crizotinib; first compound 0.03162 µM)	relative viability (Neratinib + Crizotinib; first compound 0.1 µM)	relative viability (Neratinib + Crizotinib; first compound 0.3162 µM)	relative viability (Neratinib + Crizotinib; first compound 1 µM)	relative viability (Neratinib + Phenformin; first compound 0.01 µM)	relative viability (Neratinib + Phenformin; first compound 0.03162 µM)	relative viability (Neratinib + Phenformin; first compound 0.1 µM)	relative viability (Neratinib + Phenformin; first compound 0.3162 µM)	relative viability (Neratinib + Phenformin; first compound 1 µM)	relative viability (Neratinib + Navitoclax; first compound 0.01 µM)	relative viability (Neratinib + Navitoclax; first compound 0.03162 µM)	relative viability (Neratinib + Navitoclax; first compound 0.1 µM)	relative viability (Neratinib + Navitoclax; first compound 0.3162 µM)	relative viability (Neratinib + Navitoclax; first compound 1 µM)	relative viability (Neratinib + Decitabine; first compound 0.01 µM)	relative viability (Neratinib + Decitabine; first compound 0.03162 µM)	relative viability (Neratinib + Decitabine; first compound 0.3162 µM)	relative viability (Neratinib + Decitabine; first compound 1 µM)	relative viability (Neratinib + Decitabine; first compound 0.1 µM)
HCC-78	0.325	0.3	0.284	0.264	0.225	0.724	0.731	0.624	0.545	0.296	0.747	–	0.702	0.663	0.231	0.816	–	0.691	0.649	0.651
HCC-366	0.653	0.766	0.46	0.48	0.519	0.631	0.617	0.611	0.626	0.547	1.08	–	0.975	1.11	1.02	0.361	0.429	0.368	0.471	0.33
IA-LM	0.981	0.799	0.681	0.766	0.536	–	–	–	–	–	0.814	0.774	–	0.65	0.494	–	–	–	–	–
LCLC-103H	1.09	0.989	0.88	0.892	0.884	0.353	0.344	0.34	0.293	0.293	–	–	–	–	–	0.772	0.8	0.761	0.7	0.585
NCI-H358	0.65	0.409	0.391	0.161	0.182	0.28	0.266	0.164	0.147	0.101	–	–	–	–	–	0.205	0.186	0.129	0.117	–
NCI-H522	–	–	–	–	–	0.747	0.619	0.663	0.548	0.604	–	–	–	–	–	0.719	0.671	0.557	0.573	0.711
NCI-H650	0.866	0.699	0.78	–	0.421	0.509	0.505	0.493	0.392	0.423	–	–	–	–	–	0.321	0.347	0.326	0.345	0.328
NCI-H661	1.06	0.983	0.989	0.828	0.343	0.274	0.242	0.285	0.247	0.251	–	–	–	–	–	–	0.513	0.331	0.337	0.38
NCI-H1299	0.991	1.02	0.95	0.991	1.06	–	–	–	–	–	1.04	1.06	0.986	1.07	1.11	–	–	–	–	–
NCI-H1395	–	–	–	–	–	0.461	0.484	0.462	0.428	0.388	1.16	1.24	1.14	1.08	0.734	0.681	0.807	0.769	0.559	0.749
NCI-H1563	0.918	0.802	0.788	0.758	0.638	0.727	0.643	0.568	0.628	0.409	–	–	–	–	–	–	–	–	–	–
NCI-H1648	–	–	–	–	–	–	–	–	–	–	–	–	–	–	–	0.505	0.389	0.352	0.366	0.384
NCI-H1703	–	0.582	0.637	0.5	0.14	–	–	–	–	–	1.46	0.921	0.929	0.884	0.286	–	–	–	–	–
NCI-H1793	–	–	–	–	–	0.392	0.516	0.281	0.273	0.255	0.757	0.497	0.371	0.352	0.217	0.521	0.455	0.383	0.266	–
NCI-H2228	0.668	0.44	0.294	0.322	0.225	0.334	0.331	0.268	0.236	0.122	0.929	1.57	0.802	0.953	0.258	–	–	–	–	–
NCI-H2342	–	–	–	–	–	0.662	0.688	0.517	0.351	0.403	–	–	–	–	–	–	0.829	0.558	0.649	0.743
SW 900	–	–	–	–	–	0.537	0.658	–	0.609	0.309	–	–	–	–	–	0.438	0.43	0.514	0.469	0.427
